Read-outs that look alike come from different tables or passages of the source.
Tests used:
[1] = test system: P-gp (MDR1); test: MDCK-MDR1 permeability assay; format: in vitro ADME; settings: dog, MDCK-MDR1, pH 7.4, @ 5 μM
Description: Permeability measurements were conducted according to the Cyprotex protocol using the MDCK-MDR1 cell line obtained from the NIH (Rockville, Md., USA). Cells between passage numbers 6-30 were seeded onto a Multiscreen Plate™ (Millipore) at a cell density of 3.4×10^5 cells/cm^2 and cultured for three days before permeability studies were conducted. The cells in this assay form a cohesive sheet of a single cell layer filing the surface area of the culture dish, also known as a confluent monolayer, and on day four the test compound was added to the apical side of the membrane and the transport of the compound across the monolayer was monitored over a time period of 60 min.
Test compounds were dissolved in DMSO at a concentration of 10 mM. The dosing solutions were prepared by diluting test compound with assay buffer (Hanks Balanced Salt Solution), pH 7.4, at a final concentration of 5 μM. For assessment of apical to basolateral (“A-B”) permeability, buffer was removed from the apical compartment and replaced with test compound dosing solution with or without the permeability glycoprotein (“PgP”, “P-gP”, “Pgp” or “P-gp”) inhibitor elacridar (2 μM). For assessment of basolateral to apical (“B-A”) permeability, buffer was removed from the companion plate and replaced with test compound dosing solution. Incubations were carried out in duplicate at 37° C. in an atmosphere of 5% CO2 with a relative humidity of 95%. Each assay included the reference markers propranolol (high permeability) and prazosin (PgP substrate). After incubation for 60 minutes, apical and basolateral samples were diluted and test compounds quantified by LC/MS/MS using an 8-point calibration in the range 0.0039 to 3 μM with appropriate dilution of the samples (receiver dilution factor=1; donor and C0 dilution factor=10). The permeability coefficient (Papp) for each compound was calculated from the following equation: Papp=(dQ/dt)/(C0×S), where dQ/dt is the rate of permeation of the drug across the cells, C0 is the donor compartment concentration at time zero, and S is the area of the cell monolayer.
The second and third columns in Table 7 show the values of Papp(A-B) for the apical-to-basolateral compound transport without (second column) and with a P-gp inhibitor (third column, noted as P^eapp(A-B)) that was elacridar. Papp(A-B) gives an indication of permeation extent across the cells in this assay, which is envisaged to model the transcellular transport across Pgp-expressing cells, such as Pgp-expressing gastrointestinal tract cells. P^eapp(A-B) values (Papp(A-B) in the presence of the P-gp inhibitor) given in column 3 are determined to confirm the role of P-gp in the compound efflux. […] Test compound efflux ratios are given in the fifth column of Table 7 as Papp(B-A)/Papp(A-B) by using the corresponding permeability coefficient values from the fourth and second columns in the same table.

[2] = Solubility assays in simulated gastric and simulated intestinal fluids; format: physicochemical; settings: thermodynamic from solid, 2-5 days
Description: Test compounds were dissolved in DMSO at a concentration of 10 mM. The test compounds were dispensed (20 μL) into Nunc 1-mL-96-Deep-Well-PP plates, and the DMSO was evaporated via nitrogen blow down from a TurboVap 96 for 6 hours or until a dry residue was produced. Then, 400 μL of solubility media was added to the well containing the dry solid. […] After the incubation period, the samples were filtered through an AcroPrep 1-mL-96-Filter plate into a new 2-mL-96-Deep-Well-PP plate, and the supernatants were quantified by UV-HPLC using a 3-point calibration ranging from 0.004-0.55 mM. The solubility for each compound was calculated from the following equation: […] Solubilities are reported as long as the compound under study was sufficiently stable to complete the corresponding solubility determination.

[3] = In vivo p.o. dosing: plasma and colon tissue concentrations (Protocols 1 and 2); set-up: species or system female C57BL/6 mice; settings: female, C57BL/6, mouse, po, mice, 25 mg/kg p.o.
Description: These protocols are described below under the heading In vivo Studies. Three non-fasted female C57BL/6 mice were orally administered test compound at a dose of 25 mg/kg p.o. as a solution in 20% hydroxypropyl-beta-cyclodextrin (HPβCD) at a dose volume of 5 mL/kg. Blood samples were collected at 0.5, 2, and 4 h post dose via retro-orbital bleed or venipuncture of the dorsal metatarsal vein. Blood samples were collected into tubes containing anticoagulant (Heparin-Na) and placed on wet ice. The plasma fraction was separated by centrifugation and frozen at −20° C. for up to 4 h and −80° C. after 4 h unless analyzed shortly after sample collection. Colon samples were collected at 4 h post dose. […] The colon was further washed by putting it in 5 mL of saline and shaken for 5 seconds. The colon sample was then patted dry, weighed, and homogenized as 1 part tissue (g) to 4 parts HPLC grade water (mL). Concentrations of the compound in plasma and colon homogenate were determined using a qualified liquid chromatography-triple quadrupole mass spectrometry (LC-MS/MS) method. […] Three non-fasted female C57BL/6 mice were orally administered test compound at a dose of 25 mg/kg p.o. as a solution in 20% HPβCD at a dose volume of 5 mL/kg. Blood samples were collected at 0.5, 2, and 4 h post dose via retro-orbital bleed or dorsal metatarsal vein. Blood samples were collected into tubes containing anticoagulant (Heparin-Na) and placed on wet ice. The plasma fraction was separated by centrifugation and frozen at −20° C. for up to 4 h and −80° C. after 4 h unless analyzed shortly after sample collection. Colon samples were collected at 4 h post dose. From 2 cm below the cecum, a 4 cm sample of the colon was dissected, cut open on the longitudinal axis, and the solid contents removed by flushing with 2 mL of saline. The colon was further washed by putting it in 5 mL of saline and shaken for 5 seconds. The colon sample was then patted dry, weighed, and homogenized as 1 part tissue (g) to 4 parts HPLC grade water (mL). Concentrations of the compound in plasma and colon homogenate were determined using a qualified liquid chromatography-triple quadrupole mass spectrometry (LC-MS/MS) method.

[4] = target: Tyk2-JH1JH2 (Homo sapiens (Human), UniProt P29597, C1142A/C936A); test: Enzymatic inhibition assay (RapidFire HTMS), Tyk2; format: biochemical; settings: 50 μM ATP, 200 μM substrate
In short: (§1)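 Quenched with 0.5% TFA plus internal-standard peptide; phosphorylated product quantified by RapidFire C4 SPE–ESI-MS, 11-point 1:3 or 1:4 dilutions in duplicate.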

[5] = target: JAK1-JH1JH2 (Homo sapiens (Human), UniProt P23458); test: Enzymatic inhibition assay (RapidFire HTMS), JAK1; format: biochemical; settings: 12.5 μM ATP, 200 μM substrate; read-out: JAK1-JH2JH1 IC50
In short: as §1

[6] = target: JAK3-JH1JH2 (Homo sapiens (Human), UniProt P52333); test: Enzymatic inhibition assay (RapidFire HTMS), JAK3; format: biochemical; settings: 150 μM ATP, 40 μM substrate
In short: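 JAK3 JH1JH2 reaction incubated 45 min at 25 °C, then quenched with 0.5% TFA containing 0.15 μM internal standard peptide. Phosphopeptide product measured by RapidFire C4 SPE–ESI MS (positive mode); inhibition from product decrease versus uninhibited enzyme, 11-point 1:3 or 1:4 dilutions in duplicate.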

[7] = target: JAK2-JH1JH2 (Homo sapiens (Human), UniProt O60674); test: Enzymatic inhibition assay (RapidFire HTMS), JAK2; format: biochemical; settings: 30 μM ATP, 40 μM substrate
In short: as §1

Sequence of JAK1-JH1JH2 (P23458 574-1154): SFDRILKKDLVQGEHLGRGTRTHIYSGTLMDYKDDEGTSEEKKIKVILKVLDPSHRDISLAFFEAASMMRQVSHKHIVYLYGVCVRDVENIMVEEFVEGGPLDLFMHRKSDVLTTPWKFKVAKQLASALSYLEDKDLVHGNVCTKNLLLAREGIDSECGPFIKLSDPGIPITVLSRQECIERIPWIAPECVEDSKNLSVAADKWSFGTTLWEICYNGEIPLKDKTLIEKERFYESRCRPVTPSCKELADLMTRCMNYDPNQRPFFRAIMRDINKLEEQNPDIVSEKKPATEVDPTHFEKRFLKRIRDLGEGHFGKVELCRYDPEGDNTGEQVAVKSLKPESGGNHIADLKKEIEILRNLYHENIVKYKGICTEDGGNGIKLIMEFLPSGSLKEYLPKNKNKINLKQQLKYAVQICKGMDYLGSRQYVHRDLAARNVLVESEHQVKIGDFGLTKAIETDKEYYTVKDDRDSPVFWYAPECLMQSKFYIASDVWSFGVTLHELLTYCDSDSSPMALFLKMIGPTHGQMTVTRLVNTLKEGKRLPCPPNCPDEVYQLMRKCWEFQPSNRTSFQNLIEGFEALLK
Sequence of JAK2-JH1JH2 (O60674 532-1132): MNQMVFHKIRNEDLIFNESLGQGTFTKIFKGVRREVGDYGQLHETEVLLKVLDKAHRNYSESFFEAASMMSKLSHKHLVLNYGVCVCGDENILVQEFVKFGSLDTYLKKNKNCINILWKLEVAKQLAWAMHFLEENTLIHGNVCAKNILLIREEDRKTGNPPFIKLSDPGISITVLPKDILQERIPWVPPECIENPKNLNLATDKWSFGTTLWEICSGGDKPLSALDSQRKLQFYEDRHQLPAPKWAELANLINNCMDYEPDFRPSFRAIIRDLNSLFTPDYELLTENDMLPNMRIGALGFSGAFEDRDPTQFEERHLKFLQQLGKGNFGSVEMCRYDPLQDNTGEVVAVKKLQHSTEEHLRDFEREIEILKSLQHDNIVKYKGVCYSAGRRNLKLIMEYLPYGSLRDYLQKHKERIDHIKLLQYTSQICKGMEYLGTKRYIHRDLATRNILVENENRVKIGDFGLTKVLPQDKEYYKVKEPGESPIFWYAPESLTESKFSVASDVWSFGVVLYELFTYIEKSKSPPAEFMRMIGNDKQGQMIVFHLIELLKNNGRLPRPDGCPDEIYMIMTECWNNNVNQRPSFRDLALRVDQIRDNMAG
Sequence of JAK3-JH1JH2 (P52333 512-1124): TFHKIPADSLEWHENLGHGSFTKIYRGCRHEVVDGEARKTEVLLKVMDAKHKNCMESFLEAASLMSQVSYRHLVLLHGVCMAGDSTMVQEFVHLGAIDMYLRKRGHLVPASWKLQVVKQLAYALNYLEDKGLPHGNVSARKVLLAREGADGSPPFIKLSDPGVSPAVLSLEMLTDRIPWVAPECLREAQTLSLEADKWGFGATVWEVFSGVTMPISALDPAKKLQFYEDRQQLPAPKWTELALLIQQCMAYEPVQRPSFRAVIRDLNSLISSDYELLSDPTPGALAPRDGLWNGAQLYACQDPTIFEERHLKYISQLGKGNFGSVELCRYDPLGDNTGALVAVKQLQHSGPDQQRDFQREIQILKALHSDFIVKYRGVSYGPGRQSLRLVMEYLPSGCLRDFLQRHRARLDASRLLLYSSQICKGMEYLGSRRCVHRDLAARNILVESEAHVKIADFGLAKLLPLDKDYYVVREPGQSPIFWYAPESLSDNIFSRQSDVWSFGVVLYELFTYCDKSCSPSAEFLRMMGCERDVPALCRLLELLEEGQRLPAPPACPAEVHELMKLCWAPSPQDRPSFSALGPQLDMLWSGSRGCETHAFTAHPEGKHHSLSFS
Sequence of Tyk2-JH1JH2 (P29597 580-1182 C936A/C1142A): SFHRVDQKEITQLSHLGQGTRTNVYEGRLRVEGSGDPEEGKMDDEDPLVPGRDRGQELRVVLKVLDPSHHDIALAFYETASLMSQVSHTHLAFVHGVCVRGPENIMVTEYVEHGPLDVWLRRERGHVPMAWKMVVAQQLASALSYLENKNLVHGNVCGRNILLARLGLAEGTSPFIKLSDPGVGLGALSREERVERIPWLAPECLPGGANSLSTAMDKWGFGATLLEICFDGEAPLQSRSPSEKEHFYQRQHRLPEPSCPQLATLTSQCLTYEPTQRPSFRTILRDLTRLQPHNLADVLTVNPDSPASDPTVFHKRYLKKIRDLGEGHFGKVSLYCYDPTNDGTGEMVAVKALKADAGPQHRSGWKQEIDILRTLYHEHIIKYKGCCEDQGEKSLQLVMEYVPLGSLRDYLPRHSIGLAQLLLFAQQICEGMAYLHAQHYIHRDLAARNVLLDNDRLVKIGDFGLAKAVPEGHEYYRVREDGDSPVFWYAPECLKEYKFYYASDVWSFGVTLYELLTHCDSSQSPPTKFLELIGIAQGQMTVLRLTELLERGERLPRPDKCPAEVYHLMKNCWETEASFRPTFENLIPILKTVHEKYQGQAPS

Papp A→B at 60 min, 5 μM ([1]; apical to basolateral, without P-gp inhibitor) [×10⁻⁶ cm/s] | Papp B→A at 60 min, 5 μM ([1]; basolateral to apical) [×10⁻⁶ cm/s] | solubility ([2]; fassif, simulated intestinal fluid, fasted state pH 6.5, ambient temperature, read-out: SIF solubility) [µM] | solubility ([2]; simulated gastric fluid, ambient temperature, read-out: SGF solubility) [µM] | concentration at 4 h ([3]; colon, read-out: Colon Concentration After p.o. Dosing, Mean) [ng/g] | concentration at 0.5 h ([3]; plasma, Time = 0.5 h, read-out: Plasma Concentration After p.o. Dosing, Mean) [ng/mL] | concentration at 2 h ([3]; plasma, Time = 2 h, read-out: Plasma Concentration After p.o. Dosing, Mean) [ng/mL] | concentration at 4 h ([3]; plasma, read-out: Plasma Concentration After p.o. Dosing, Mean) [ng/mL] | IC50 [4] [nM] | IC50 [5] [nM] | IC50 [6] [nM] | IC50 [7] [nM] | SMILES
< 0.4 | 1.8 | > 400 | > 400 | 7680 | 15.1 | 6.2 | 3.9 | – | – | – | – | Cn1cc(NC(=O)Cc2nc3cnc4[nH]ccc4c3n2[C@H]2CC[C@H](CC#N)CC2)cn1 [Ex. 38, 2-(1-((1r,4r)-4-(Cyanomethyl)cyclohexyl)-1,6-dihydroimidazo[4,5-d]pyrrolo[2,3-b]pyridin-2-yl)-N-(1-methyl-1H-pyrazol-4-yl)acetamide]
– | – | – | – | – | – | – | – | 7.9 | < 4 | 109 | 3.6 | N#CC[C@H]1CC[C@H](n2c(CC(=O)NCC34CC5CC(CC(C5)C3)C4)nc3cnc4[nH]ccc4c32)CC1 [Ex. 199, N-((3R,5R,7R)-Adamantan-1-ylmethyl)-2-(1-((1r,4r)-4-(cyanomethyl)cyclohexyl)-1,6-dihydroimidazo[4,5-d]pyrrolo[2,3-b]pyridin-2-yl)acetamide]
– | – | – | – | – | – | – | – | 12.5 | < 4 | 13.7 | < 3.5 | N#CC[C@H]1CC[C@H](n2c(CC(=O)Nc3ccc(C#N)cc3)nc3cnc4[nH]ccc4c32)CC1 [Ex. 200, 2-(1-((1r,4r)-4-(Cyanomethyl)cyclohexyl)-1,6-dihydroimidazo[4,5-d]pyrrolo[2,3-b]pyridin-2-yl)-N-(4-cyanophenyl)acetamide]
– | – | – | – | – | – | – | – | 1.1 | < 4 | 47.5 | 1.9 | N#CC[C@H]1CC[C@H](n2c(CC(N)=O)nc3cnc4[nH]ccc4c32)CC1 [Ex. 201, 2-(1-((1r,4r)-4-(Cyanomethyl)cyclohexyl)-1,6-dihydroimidazo[4,5-d]pyrrolo[2,3-b]pyridin-2-yl)acetamide]
– | – | – | – | – | – | – | – | 41.5 | 8.5 | 4680 | 152 | N#CC[C@H]1CC[C@H](n2c(Cn3c(-c4ccccc4)noc3=O)nc3cnc4[nH]ccc4c32)CC1 [Ex. 203, 2-((1r,4r)-4-(2-((5-Oxo-3-phenyl-1,2,4-oxadiazol-4(5H)-yl)methyl)imidazo[4,5-d]pyrrolo[2,3-b]pyridin-1(6H)-yl)cyclohexyl)acetonitrile]
– | – | – | – | – | – | – | – | 10.7 | 6.7 | 427 | 13.1 | N#CC[C@H]1CC[C@H](n2c(CN/C(=N/O)C3CCCCC3)nc3cnc4[nH]ccc4c32)CC1 [Ex. 204, N-((1-((1r,4r)-4-(Cyanomethyl)cyclohexyl)-1,6-dihydroimidazo[4,5-d]pyrrolo[2,3-b]pyridin-2-yl)methyl)-N′-hydroxycyclohexanecarboximidamide]
– | – | – | – | – | – | – | – | 606 | 5.3 | 439 | 487 | N#CCC12CCC(n3c(CC(=O)N4CCCCC4)nc4cnc5[nH]ccc5c43)(CC1)CC2 [Ex. 205, 2-(4-(2-(2-Oxo-2-(piperidin-1-yl)ethyl)imidazo[4,5-d]pyrrolo[2,3-b]pyridin-1(6H)-yl)bicyclo[2.2.2]octan-1-yl)acetonitrile]
– | – | – | – | – | – | – | – | 158 | 5.6 | 881 | 210 | N#CCC12CCC(n3c(CC(N)=O)nc4cnc5[nH]ccc5c43)(CC1)CC2 [Ex. 206, 2-(1-(4-(Cyanomethyl)bicyclo[2.2.2]octan-1-yl)-1,6-dihydroimidazo[4,5-d]pyrrolo[2,3-b]pyridin-2-yl)acetamide]
– | – | – | – | – | – | – | – | 524 | 6.8 | 375 | 198 | N#CCC12CCC(n3c(CC(=O)Nc4ccccc4)nc4cnc5[nH]ccc5c43)(CC1)CC2 [Ex. 207, 2-(1-(4-(Cyanomethyl)bicyclo[2.2.2]octan-1-yl)-1,6-dihydroimidazo[4,5-d]pyrrolo[2,3-b]pyridin-2-yl)-N-phenylacetamide]
– | – | – | – | – | – | – | – | 714 | 7.6 | 536 | 442 | N#CCC12CCC(n3c(CC(=O)NCC4CCCCC4)nc4cnc5[nH]ccc5c43)(CC1)CC2 [Ex. 208, 2-(1-(4-(Cyanomethyl)bicyclo[2.2.2]octan-1-yl)-1,6-dihydroimidazo[4,5-d]pyrrolo[2,3-b]pyridin-2-yl)-N-(cyclohexylmethyl)acetamide]
– | – | – | – | – | – | – | – | 651 | 18.9 | 604 | 520 | CNC(=O)Cc1nc2cnc3[nH]ccc3c2n1C12CCC(CC#N)(CC1)CC2 [Ex. 209, 2-(1-(4-(Cyanomethyl)bicyclo[2.2.2]octan-1-yl)-1,6-dihydroimidazo[4,5-d]pyrrolo[2,3-b]pyridin-2-yl)-N-methylacetamide]

SMILES | Papp A→B at 60 min, 5 μM ([1]; apical to basolateral, without P-gp inhibitor) [×10⁻⁶ cm/s] | Papp B→A at 60 min, 5 μM ([1]; basolateral to apical) [×10⁻⁶ cm/s] | solubility ([2]; fassif, simulated intestinal fluid, fasted state pH 6.5, ambient temperature, read-out: SIF solubility) [µM] | solubility ([2]; simulated gastric fluid, ambient temperature, read-out: SGF solubility) [µM] | concentration at 4 h ([3]; colon, read-out: Colon Concentration After p.o. Dosing, Mean) [ng/g] | concentration at 0.5 h ([3]; plasma, Time = 0.5 h, read-out: Plasma Concentration After p.o. Dosing, Mean) [ng/mL] | concentration at 2 h ([3]; plasma, Time = 2 h, read-out: Plasma Concentration After p.o. Dosing, Mean) [ng/mL] | concentration at 4 h ([3]; plasma, read-out: Plasma Concentration After p.o. Dosing, Mean) [ng/mL] | IC50 [4] [nM] | IC50 [5] [nM] | IC50 [6] [nM] | IC50 [7] [nM]
CC(C)(C)OCc1nc2cnc3[nH]ccc3c2n1[C@H]1CC[C@H](CC#N)CC1 [Ex. 202, 2-((1r,4r)-4-(2-(tert-Butoxymethyl)imidazo[4,5-d]pyrrolo[2,3-b]pyridin-1(6H)-yl)cyclohexyl)acetonitrile] | – | – | – | – | – | – | – | – | 50.9 | 5 | 1040 | 50.9

Source: patent US10981911B2, “Imidazopyrrolopyridine as inhibitors of the JAK family of kinases” (Janssen Pharmaceutica NV, priority 2016, dated 2021)
